Results on eleven compounds are retold here after patent US6777425B2, “Isoquinoline compounds having antiinfective activity” (Genesoft Pharmaceuticals, Inc., priority 2001, dated 2004).

The test system of one assay is B. cereus ATCC 11778. Briefly: NCCLS broth microdilution MIC, B. cereus. The following applies: organism A = B. cereus ATCC 11778; for MIC: Bacillus cereus, ATCC11778, read-out: Minimum Inhibitory Concentration (MIC). It is filed as cell-based, Bacillus cereus. The source says:
(§1) Compounds according to this invention were screened for their in vitro activities against selected species of bacteria and fungi. […]

A further assay has as its system S. pneumoniae ATCC 49619. Briefly: NCCLS broth microdilution MIC, S. pneumoniae ATCC 49619. It is filed as cell-based, Streptococcus pneumoniae. As to conditions: organism H = S. pneumoniae ATCC 49619; for MIC: Streptococcus pneumoniae, ATCC49619, read-out: Minimum Inhibitory Concentration (MIC).
Source text: as §1

For assay [1], the target named is target sequence AGTACT, 310 base pair dsDNA restriction fragment of Plasmid A. The assay is described as follows: Quantitative DNase I footprint titration, AGTACT. As to conditions: 310 bp/A, pH 7.0, 22° C., read-out: Dissociation Constant Kd. It is filed as binding.
For another assay, the system named is E. faecalis ATCC 29212. Briefly: NCCLS broth microdilution MIC, E. faecalis. It is filed as cell-based. As to conditions: organism C = E. faecalis ATCC 29212; for MIC: Enterococcus faecalis, ATCC29212, read-out: Minimum Inhibitory Concentration (MIC).
Source text: as §1

In assay [2] the target is target sequence AATTAATCAT, 352 base pair dsDNA restriction fragment of Plasmid B. Briefly: Quantitative DNase I footprint titration, […]. It is filed as binding. The following applies: 352 bp/B, pH 7.0, 22° C., read-out: Dissociation Constant Kd.
The next assay deals with S. aureus ATCC 13709. The assay is described as follows: NCCLS broth microdilution MIC, S. aureus (MSSA). It is filed as cell-based, Staphylococcus aureus. The following applies: organism E = S. aureus ATCC 13709 (MSSA); for MIC: Staphylococcus aureus, read-out: Minimum Inhibitory Concentration (MIC).
Source text: as §1
For orientation: Dilution methods test growth across graded concentrations, often in twofold steps.

The test system of a further assay is C. albicans ATCC 38247. Briefly: Antifungal MIC, C. albicans. It is filed as cell-based, Candida albicans. The following applies: organism B = C. albicans ATCC 38247; for MIC: Candida albicans, ATCC38247, read-out: Minimum Inhibitory Concentration (MIC).
Source text: as §1

A further assay deals with S. pneumoniae ATCC 51422. Briefly: NCCLS broth microdilution MIC, S. pneumoniae (PRSP). In kind it is cell-based, Streptococcus pneumoniae. As to conditions: organism I = S. pneumoniae ATCC 51422 (PRSP).
Source text: as §1

The subject of assay [3] is S. epidermidis ATCC 12228. Briefly: NCCLS broth microdilution MIC, S. epidermidis. In kind it is cell-based, Staphylococcus epidermidis. The following applies: organism G = S. epidermidis ATCC 12228.
Source text: as §1

Assay [4] concerns methicillin resistant Staphylococcus aureus ATCC 33591. The assay is described as follows: Murine neutropenic thigh model. It is filed as in vivo. As to conditions: thigh at 6 hr, neutropenic CF1 mice. As to the method:
The suspension was diluted 1:100 in phosphate buffered saline (pH 7.2) for a final concentration of 10^6 cfu/mL.
Outbred female CF1 mice (approx. 20 gram body weight) were rendered neutropenic by treatment with cyclophosphamide (200 mg/kg body weight, intraperitoneal injection) at 2 and 4 days prior to inoculation. Groups of 5 mice were inoculated with 0.05 mL of the bacteria (approx. 10^6 cfu/mL) into the anterior thigh. Each group was treated intravenously two hours post infection with vehicle (phosphate buffered saline) or test compound. The mice were sacrificed at either 6 or 24 hrs after treatment and thighs were collected aseptically. Each thigh was weighed, placed into sterile saline, and homogenized. The tissue homogenates were diluted appropriately for plating on agar plates. Colony counts were recorded (cfu/gram) and compared to control groups.

Another assay concerns E. faecium ATCC 51559. The assay is described as follows: NCCLS broth microdilution MIC, E. faecium (VRE). It is filed as cell-based, Enterococcus faecium. As to conditions: organism D = E. faecium ATCC 51559 (VRE).
Source text: as §1

A further assay has as its system S. aureus ATCC 27660. The assay is described as follows: NCCLS broth microdilution MIC, S. aureus (MRSA). It is filed as cell-based, Staphylococcus aureus. As to conditions: organism F = S. aureus ATCC 27660 (MRSA).
Source text: as §1

[5] abbreviates: 50 mg/kg intravenously two hours post infection.

A word on the Kd: it is the free concentration of one partner at which half of the binding sites on the other are occupied at equilibrium, for simple one-to-one binding. Take `Cn1cc(NC(=O)c2cc(NC(=O)c3cc(NC(=O)c4cc5ccccc5cn4)no3)cn2C)cc1C(=O)NCCN1CCOCC1` [Ib-60]: the MIC is less than 4 µg/mL in the assay on B. cereus ATCC 11778; less than 4 µg/mL in the assay on S. pneumoniae ATCC 49619; less than 4 µg/mL in the assay with E. faecalis ATCC 29212; less than 4 µg/mL with S. aureus ATCC 13709; more than 32 µg/mL with C. albicans ATCC 38247. The Kd worked out at 10 nM in assay [1] and 5 nM in assay [2].

`Cc1cc(NC(=O)c2cc(NC(=O)c3cc(NC(=O)c4cc5ccccc5cn4)cn3C)cn2CCCN(C)C)sn1` [Ib-66]: the “Minimum Inhibitory Concentration (MIC)” value in the assay on B. cereus ATCC 11778 is “+++ (+++ = MIC ≦ 4)”; in the assay on S. pneumoniae ATCC 49619, “+++ (+++ = MIC ≦ 4)”; with S. pneumoniae ATCC 51422, “+++ (+++ = MIC ≦ 4)”; with E. faecalis ATCC 29212, “+++ (+++ = MIC ≦ 4)”; in assay [3] it was “+++ (+++ = MIC ≦ 4)”; in the assay on E. faecium ATCC 51559 it was “++ (++ = 4 < MIC < 12)”. Moreover, the “Minimum Inhibitory Concentration (MIC)” value in the assay on S. aureus ATCC 13709, with C. albicans ATCC 38247 and in the assay with S. aureus ATCC 27660 was “+++ (+++ = MIC ≦ 4)” in each case. Moreover, in [4] (setting [5]), the “Colony Count (log cfu/gram), Compound” value was 6.66 log cfu/gram.

On to `Cn1cc(NC(=O)c2cc(NC(=O)c3cc(NC(=O)c4cc5ccccc5cn4)cn3C)c[nH]2)cc1C(=O)NCCN1CCOCC1` [Ib-67], for which the “Minimum Inhibitory Concentration (MIC)” value in the assay with B. cereus ATCC 11778 was “+++ (+++ = MIC ≦ 4)”; with S. pneumoniae ATCC 49619, “+++ (+++ = MIC ≦ 4)”; in the assay with E. faecalis ATCC 29212 it was “+++ (+++ = MIC ≦ 4)”; in the assay on S. aureus ATCC 13709, “+++ (+++ = MIC ≦ 4)”; in the assay on C. albicans ATCC 38247, more than 32 µg/mL; in the assay with S. aureus ATCC 27660 it was “+++ (+++ = MIC ≦ 4)”. For the same compound, the “Colony Count (log cfu/gram), Compound” value in assay [4] (25 mg/kg intravenously two hours post infection) was 6.61 log cfu/gram; in [4] (setting [5]) it was 5.79 log cfu/gram.

For `Cn1cc(NC(=O)c2cc3ccccc3cn2)cc1C(=O)Nc1cc(C(=O)Nc2cc(C(=O)NCCN3CCCCC3)n(CCN3CCCCC3)c2)n(C)c1` [Ib-68], the “Minimum Inhibitory Concentration (MIC)” value in the assay with B. cereus ATCC 11778 is recorded as “+++ (+++ = MIC ≦ 4)”; with S. pneumoniae ATCC 49619, “+++ (+++ = MIC ≦ 4)”; in the assay on E. faecalis ATCC 29212, “+++ (+++ = MIC ≦ 4)”; with S. aureus ATCC 13709, “+++ (+++ = MIC ≦ 4)”; in the assay with C. albicans ATCC 38247, “+ (+ = 12 ≦ MIC ≦ 32)”; in the assay on S. aureus ATCC 27660 it was “+++ (+++ = MIC ≦ 4)”. Moreover, in [4] (setting [5]), the “Colony Count (log cfu/gram), Compound” value was 6.36 log cfu/gram.

Regarding `Cn1cc(NC(=O)c2cc(NC(=O)c3cc(NC(=O)c4cc5ccccc5cn4)cn3C)c[nH]2)cc1C(=O)NCCc1ccccn1` [Ib-93], the “Minimum Inhibitory Concentration (MIC)” value (in the assay with B. cereus ATCC 11778; with S. pneumoniae ATCC 49619; with S. pneumoniae ATCC 51422; with E. faecalis ATCC 29212; in [3]; in the assay on E. faecium ATCC 51559) was “+++ (+++ = MIC ≦ 4)” in each case. For the same compound, the “Minimum Inhibitory Concentration (MIC)” value in the assay on S. aureus ATCC 13709 is “+++ (+++ = MIC ≦ 4)”; in the assay with C. albicans ATCC 38247, more than 32 µg/mL; in the assay on S. aureus ATCC 27660, “+++ (+++ = MIC ≦ 4)”.

Take `Cn1cc(NC(=O)c2ccc(NC(=O)c3cc(NC(=O)c4cc5ccccc5cn4)cn3C)cc2)cc1C(=O)NCCN1CCOCC1` [Ic-1]: the MIC in the assay on B. cereus ATCC 11778 is less than 4 µg/mL; with S. pneumoniae ATCC 49619, less than 4 µg/mL; in the assay with S. pneumoniae ATCC 51422 (Streptococcus pneumoniae, read-out: Minimum Inhibitory Concentration (MIC)), less than 4 µg/mL; with E. faecalis ATCC 29212 it was less than 4 µg/mL; in assay [3] (Staphylococcus epidermidis, ATCC12228, read-out: Minimum Inhibitory Concentration (MIC)), less than 4 µg/mL; with E. faecium ATCC 51559 (Enterococcus faecium, read-out: Minimum Inhibitory Concentration (MIC)) it was less than 4 µg/mL. The MIC in the assay on S. aureus ATCC 13709 is less than 4 µg/mL; in the assay with C. albicans ATCC 38247 it was more than 32 µg/mL; with S. aureus ATCC 27660 (Staphylococcus aureus, read-out: Minimum Inhibitory Concentration (MIC)), less than 4 µg/mL.

For the compound `Cn1cc(NC(=O)c2ccc(NC(=O)c3cc(NC(=O)c4cc5ccccc5cn4)cn3C)cc2)cc1C(=O)NCCN1CCC(F)CC1` [Ic-3], the “Minimum Inhibitory Concentration (MIC)” value (in the assay on B. cereus ATCC 11778; with S. pneumoniae ATCC 49619; with S. pneumoniae ATCC 51422; in the assay with E. faecalis ATCC 29212; in assay [3]; in the assay with E. faecium ATCC 51559) was “+++ (+++ = MIC ≦ 4)” each time. In addition, the “Minimum Inhibitory Concentration (MIC)” value with S. aureus ATCC 13709 is “+++ (+++ = MIC ≦ 4)”; with C. albicans ATCC 38247, more than 32 µg/mL; with S. aureus ATCC 27660 it was “+++ (+++ = MIC ≦ 4)”.

In the case of `Cn1cc(NC(=O)c2ccc(NC(=O)c3cc(NC(=O)c4cc5ccccc5cn4)cn3C)cc2)cc1C(=O)NCCN1CCC(F)(F)CC1` [Ic-4], the “Minimum Inhibitory Concentration (MIC)” value (in the assay on B. cereus ATCC 11778; with S. pneumoniae ATCC 49619; in the assay on S. pneumoniae ATCC 51422; with E. faecalis ATCC 29212; in assay [3]; in the assay with E. faecium ATCC 51559) was “+++ (+++ = MIC ≦ 4)” in each case. In addition, the figures for the “Minimum Inhibitory Concentration (MIC)” value in the assay with S. aureus ATCC 13709, in the assay with C. albicans ATCC 38247 and in the assay on S. aureus ATCC 27660 were “+++ (+++ = MIC ≦ 4)”, more than 32 µg/mL and “+++ (+++ = MIC ≦ 4)”, respectively.

As to `Cn1cc(NC(=O)c2ccc(NC(=O)c3cc(NC(=O)c4cc5ccccc5cn4)cn3C)cc2)cc1C(=O)NCCN1CCSCC1` [Ic-7], the “Minimum Inhibitory Concentration (MIC)” value (in the assay on B. cereus ATCC 11778; in the assay with S. pneumoniae ATCC 49619; with S. pneumoniae ATCC 51422; in the assay on E. faecalis ATCC 29212; in assay [3]; in the assay on E. faecium ATCC 51559) was “+++ (+++ = MIC ≦ 4)” in each case. In addition, the figures for the “Minimum Inhibitory Concentration (MIC)” value in the assay with S. aureus ATCC 13709, with C. albicans ATCC 38247 and in the assay with S. aureus ATCC 27660 were “+++ (+++ = MIC ≦ 4)”, more than 32 µg/mL and “+++ (+++ = MIC ≦ 4)”, respectively.

Turning to `Cn1cc(NC(=O)c2ccc(NC(=O)c3cc(NC(=O)c4cc5ccccc5cn4)cn3C)cc2)cc1C(=O)NCCc1ccccn1` [Ic-12], the “Minimum Inhibitory Concentration (MIC)” value in the assay on B. cereus ATCC 11778 was more than 32 µg/mL; in the assay with S. pneumoniae ATCC 49619 it was “+++ (+++ = MIC ≦ 4)”; in the assay with S. pneumoniae ATCC 51422, “+++ (+++ = MIC ≦ 4)”; with E. faecalis ATCC 29212, “+++ (+++ = MIC ≦ 4)”; in [3], “+++ (+++ = MIC ≦ 4)”; with E. faecium ATCC 51559, “+++ (+++ = MIC ≦ 4)”. For the same compound, the “Minimum Inhibitory Concentration (MIC)” value in the assay on S. aureus ATCC 13709 was “+++ (+++ = MIC ≦ 4)”; in the assay with C. albicans ATCC 38247 it was more than 32 µg/mL; with S. aureus ATCC 27660 it was “+++ (+++ = MIC ≦ 4)”.

`Cn1cc(NC(=O)c2ccc(NC(=O)c3cc(NC(=O)c4cc5ccccc5cn4)cn3C)cc2)cc1C(=O)NCCN1CCCCC1` [Ic-13]: the “Minimum Inhibitory Concentration (MIC)” value (in the assay with B. cereus ATCC 11778; with S. pneumoniae ATCC 49619; in the assay with S. pneumoniae ATCC 51422; in the assay on E. faecalis ATCC 29212; in [3]; in the assay with E. faecium ATCC 51559) was “+++ (+++ = MIC ≦ 4)” each time. Moreover, the “Minimum Inhibitory Concentration (MIC)” value in the assay on S. aureus ATCC 13709 is “+++ (+++ = MIC ≦ 4)”; with C. albicans ATCC 38247 it was more than 32 µg/mL; in the assay on S. aureus ATCC 27660, “+++ (+++ = MIC ≦ 4)”.
